# Measurements from ChEMBL document CHEMBL1649204, “Evaluation of analogs of reutericyclin as prospective candidates for treatment of staphylococcal skin infections” (Antimicrob Agents Chemother, 2009).
# Activity calls are given as the source filed them. The rule behind the calls is not given here.
# How the values were obtained:
# Staphylococcus aureus [1] = experiment: Antimicrobial activity against mupirocin- and methicillin-resistant Staphylococcus aureus by microdilution method; assay type: functional
# Staphylococcus aureus [2] = experiment: Antimicrobial activity against Staphylococcus aureus 8235 by microdilution method; assay type: functional
# Staphylococcus aureus [3] = experiment: Antimicrobial activity against methicillin-susceptible Staphylococcus aureus by microdilution method; assay type: functional
# Staphylococcus aureus [4] = experiment: Antimicrobial activity against methicillin-susceptible Staphylococcus aureus ATCC 29213 by microdilution method; assay type: functional
# [5] = system: Staphylococcus epidermidis; experiment: Antimicrobial activity against Staphylococcus epidermidis RP62A grown as biofilms by microdilution method; assay type: functional
# Staphylococcus aureus [6] = experiment: Antimicrobial activity against methicillin-resistant Staphylococcus aureus ATCC 33591 by microdilution method; assay type: functional
# [7] = Cytotoxicity against human CCD-32Sk cells after 48 hrs by MTT assay; assay type: cell-based
# Streptococcus pyogenes = experiment: Antimicrobial activity against Streptococcus pyogenes by microdilution method; assay type: functional
# Staphylococcus aureus [8] = experiment: Antimicrobial activity against methicillin-susceptible Staphylococcus aureus ATCC 29213 grown as biofilms by microdilution method; assay type: functional
# [9] = system: Staphylococcus epidermidis; experiment: Antimicrobial activity against Staphylococcus epidermidis RP62A by microdilution method; assay type: functional
# [10] = Therapeutic index, ratio of IC50 for human CCD-32Sk cells to MIC for Staphylococcus aureus 8235; assay type: cell-based; conditions: read-out: TI
# Staphylococcus aureus [11] = experiment: Antimicrobial activity against methicillin-resistant Staphylococcus aureus ATCC 33591 grown as biofilms by microdilution method; assay type: functional
# Staphylococcus aureus [12] = experiment: Antimicrobial activity against methicillin-resistant Staphylococcus aureus by microdilution method; assay type: functional
# Staphylococcus aureus [13] = experiment: Antimicrobial activity against Staphylococcus aureus isolate 8235 at >200 ug/ml by microdilution method in presence of 50 % human serum; assay type: functional, organism-based
# Staphylococcus aureus [14] = experiment: Bacteriostatic activity against Staphylococcus aureus isolate 8235 assessed as log reduction in bacterial count at 32 times MIC after 24 hrs by microdilution method; assay type: functional
# Staphylococcus aureus [15] = experiment: Antimicrobial activity against Staphylococcus aureus 8235 selected after 4 times MIC pre-incubated for 1 hr by microdilution method; assay type: functional
# Staphylococcus aureus [16] = experiment: Antimicrobial activity against Staphylococcus aureus ATCC 29213 infected BALB/c mouse at 10 % administered topically 4 hrs post infection twice a day for 5 days; assay type: functional, organism-based
# Staphylococcus aureus [17] = experiment: Antimicrobial activity against Staphylococcus aureus ATCC 29213 infected BALB/c mouse at 2 % administered topically 4 hrs post infection twice a day for 5 days; assay type: functional, organism-based
# [18] = Homo sapiens, CCD-32Sk, 48 h, read-out: IC50
Compound,MIC50 (Staphylococcus aureus [1]) [mg/L],MIC90 (Staphylococcus aureus [1]) [mg/L],MIC (Staphylococcus aureus [2]),MIC50 (Staphylococcus aureus [3]) [mg/L],MIC90 (Staphylococcus aureus [3]) [mg/L],MIC (Staphylococcus aureus [4]) [mg/L],MBEC [5] [µg/mL],MBIC [5] [µg/mL],MIC (Staphylococcus aureus [6]) [mg/L],"IC50 [7, 18] [mg/L]",MIC50 (Streptococcus pyogenes) [mg/L],MIC90 (Streptococcus pyogenes) [mg/L],MBEC (Staphylococcus aureus [8]),MBIC (Staphylococcus aureus [8]) [µg/mL],MIC [9] [mg/L],selectivity ratio [10],MIC50 (Staphylococcus aureus [12]) [mg/L],MIC90 (Staphylococcus aureus [12]) [mg/L],Activity (Staphylococcus aureus [13]),FC (Staphylococcus aureus [14]),also measured
CN[C@H](CC(C)C)C(=O)N[C@H]1C(=O)N[C@@H](CC(N)=O)C(=O)N[C@H]2C(=O)N[C@H]3C(=O)N[C@H](C(=O)N[C@H](C(=O)O)c4cc(O)cc(O)c4-c4cc3ccc4O)[C@H](O)c3ccc(c(Cl)c3)Oc3cc2cc(c3O[C@@H]2O[C@H](CO)[C@@H](O)[C@H](O)[C@H]2O[C@H]2C[C@](C)(N)[C@H](O)[C@H](C)O2)Oc2ccc(cc2Cl)[C@H]1O [VANCOMYCIN],> 200,> 200,0.8 mg/L,0.12,0.2,0.8,>400,12.5,1.6,> 20000,0.024,0.024,>400 µg/mL,3.12,1.6,> 25000,0.2,0.4,,,MIC (Staphylococcus aureus [3]): 0.05 mg/L; MBEC (Staphylococcus aureus [11]): >400 µg/mL; MBIC (Staphylococcus aureus [11]): 1.6 µg/mL
C/C(O)=C1\C(=O)[C@H](CC(C)C)N(Cc2ccc(-c3ccccc3)cc2)C1=O,1.6,1.6,25 mg/L,0.8,1.6,0.8,200,1.6,0.8,529,0.2,0.8,100 µg/mL,3.12,0.8,21.2,1.6,1.6,inactive,2.6,MIC (Staphylococcus aureus [3]): 0.8 mg/L; MBIC (Staphylococcus aureus [11]): 0.8 µg/mL; MIC (Staphylococcus aureus [15]): 0.8 mg/L
C/C(O)=C1\C(=O)[C@H](CC(C)C)N(CC2=CCC3CC2C3(C)C)C1=O (some centres not stated),3.12,3.12,25 mg/L,1.6,3.12,1.6,>400,1.6,1.6,377,0.4,1.6,>=400 ug ml-1,6.2,3.12,15.1,3.12,3.12,inactive,2.6,MIC (Staphylococcus aureus [3]): 1.6 mg/L; Activity (Staphylococcus aureus [16]): Active; MIC (Staphylococcus aureus [15]): 1.6 mg/L
CCCCCCCCCCN1C(=O)/C(=C(/C)O)C(=O)[C@@H]1CC(C)C,0.8,1.6,25 mg/L,0.4,0.8,0.8,50,0.4,0.8,308,0.2,0.8,50 µg/mL,3.12,0.4,12.3,0.8,1.6,inactive,2.6,MIC (Staphylococcus aureus [3]): 0.4 mg/L; Activity (Staphylococcus aureus [16]): Active; MBEC (Staphylococcus aureus [11]): 6.25 µg/mL; MBIC (Staphylococcus aureus [11]): 0.8 µg/mL; MIC (Staphylococcus aureus [15]): 0.8 mg/L
C/C(O)=C1\C(=O)[C@H](CC(C)C)N(CCC(C)C/C=C/C(C)C)C1=O (some centres not stated),0.8,1.6,25 mg/L,0.8,1.6,0.8,200,0.4,0.8,256,0.4,0.8,50 µg/mL,3.12,0.8,10.2,0.8,1.6,inactive,2.6,MIC (Staphylococcus aureus [1]): 0.8 mg/L; MBIC (Staphylococcus aureus [11]): 0.4 µg/mL; MIC (Staphylococcus aureus [15]): 0.8 mg/L
CCCCCCCCCCN1C(=O)/C(=C(/C)O)C(=O)[C@@H]1C(C)C,1.6,3.12,25 mg/L,0.8,0.8,0.8,25,0.8,0.8,356,0.2,0.8,25 µg/mL,1.6,0.8,14.4,0.8,1.6,inactive,2.6,MBIC (Staphylococcus aureus [11]): 0.8 µg/mL; MIC (Staphylococcus aureus [15]): 0.8 mg/L
C/C(=C\C(=O)OCCCCCCCCC(=O)O)C[C@@H]1OC[C@H](C[C@@H]2O[C@H]2[C@@H](C)[C@H](C)O)[C@@H](O)[C@H]1O [MUPIROCIN],0.8,0.8,12.5 mg/L,0.8,0.8,0.1,>400,<0.2,0.06,> 20000,0.4,0.4,>400 µg/mL,<0.2,0.12,> 1600,0.8,3.12,inactive,,Activity (Staphylococcus aureus [17]): Active
CC1(C)S[C@@H]2[C@H](NC(=O)[C@H](N)c3ccc(O)cc3)C(=O)N2[C@H]1C(=O)O [AMOXICILLIN],,,inactive,,,,,,,,,,,,,,,,,2.6,IC50 ([7]; ccd-32sk): Not Active; MIC (Staphylococcus aureus [15]): 12.5 mg/L
C=C(NC(=O)[C@@H](NC(=O)[C@H](Cc1cnc[nH]1)NC(=O)[C@@H](NC(=O)[C@H](CO)NC(=O)[C@@H]1CS[C@@H](C)[C@H]2NC(=O)C(=C)NC(=O)[C@H](NC(=O)[C@H](CCCCN)NC(=O)[C@H](CCSC)NC(=O)[C@H](CC(N)=O)NC(=O)[C@@H]3CS[C@@H](C)[C@@H](NC(=O)[C@H](CCCNN)NC(=O)[C@@H]4CS[C@@H](C)[C@@H](NC(=O)[C@@H]5CSC[C@@H](NC(=O)/C(=C\C)NC(=O)[C@@H](N)[C@@H](C)CC)C(=O)N[C@@H]([C@@H](C)CC)C(=O)NC(=C)C(=O)N[C@@H]([C@@H](C)CC)C(=O)N5)C(=O)N5CCC[C@H]5C(=O)NCC(=O)N4)C(=O)NCC(=O)N[C@@H](C)C(=O)N[C@@H]([C@@H](C)CC)C(=O)N[C@@H](CCSC)C(=O)NCC(=O)N3)[C@H](C)SC[C@H](NC2=O)C(=O)N[C@H](Cc2cnc[nH]2)C(=O)N1)[C@@H](C)CC)C(C)C)C(=O)N[C@@H](CCCCN)C(=O)O [NISIN],,,inactive,,,,,,,,,,,,,,,,,2.6,IC50 ([7]; ccd-32sk): Not Active
CO[C@H]1/C=C/O[C@@]2(C)Oc3c(C)c(O)c4c(O)c(c(/C=N/N5CCN(C)CC5)c(O)c4c3C2=O)NC(=O)/C(C)=C\C=C\[C@H](C)[C@H](O)[C@@H](C)[C@@H](O)[C@@H](C)[C@H](OC(C)=O)[C@@H]1C [RIFAMPIN],,,,,,0.006,50,<0.2,0.012,,,,25 µg/mL,<0.2,0.012,,,,,,MBEC (Staphylococcus aureus [11]): 6.25 µg/mL
